ChEMBL document CHEMBL1126549, “A novel series of selective, non-peptide inhibitors of angiotensin II binding to the AT2 site” (J Med Chem, 1993)

Experiments:
[1] = molecular target: T1, Angiotensin II receptor (AT-1) type-1 (Rattus norvegicus, UniProt P29089+P25095); experiment: Binding affinity towards Angiotensin II receptor, type 1 in rat isolated adrenal cortical microsomes; parameters: species or system Microsome
T1 sequence (P29089 whole entry): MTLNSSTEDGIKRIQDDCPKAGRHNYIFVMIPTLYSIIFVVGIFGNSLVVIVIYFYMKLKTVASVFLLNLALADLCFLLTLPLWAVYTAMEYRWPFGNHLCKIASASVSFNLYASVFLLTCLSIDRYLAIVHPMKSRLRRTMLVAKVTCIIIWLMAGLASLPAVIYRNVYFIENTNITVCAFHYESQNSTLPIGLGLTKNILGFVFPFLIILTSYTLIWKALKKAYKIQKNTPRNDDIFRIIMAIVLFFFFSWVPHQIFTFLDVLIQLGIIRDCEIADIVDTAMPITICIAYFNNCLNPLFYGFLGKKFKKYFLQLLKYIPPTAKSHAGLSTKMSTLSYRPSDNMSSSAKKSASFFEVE
T1 sequence (P25095 whole entry): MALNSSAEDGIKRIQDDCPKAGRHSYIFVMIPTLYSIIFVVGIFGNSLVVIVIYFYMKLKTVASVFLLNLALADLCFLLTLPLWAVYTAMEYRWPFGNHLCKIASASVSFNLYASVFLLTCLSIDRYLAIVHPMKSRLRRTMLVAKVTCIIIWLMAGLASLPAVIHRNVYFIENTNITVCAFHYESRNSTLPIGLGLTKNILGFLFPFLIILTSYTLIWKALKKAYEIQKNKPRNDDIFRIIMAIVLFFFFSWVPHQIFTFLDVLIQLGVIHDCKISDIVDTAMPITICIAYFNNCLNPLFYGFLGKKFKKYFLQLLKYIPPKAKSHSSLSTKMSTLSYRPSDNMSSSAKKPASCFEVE

[2] = molecular target: T2, Type-2 angiotensin II receptor (Rattus norvegicus, UniProt P35351); experiment: Binding affinity towards Angiotensin II receptor, type 2 in rat isolated adrenal medullary microsomes; parameters: species or system Adrenal medulla, Microsome
T2 sequence (P35351 whole entry): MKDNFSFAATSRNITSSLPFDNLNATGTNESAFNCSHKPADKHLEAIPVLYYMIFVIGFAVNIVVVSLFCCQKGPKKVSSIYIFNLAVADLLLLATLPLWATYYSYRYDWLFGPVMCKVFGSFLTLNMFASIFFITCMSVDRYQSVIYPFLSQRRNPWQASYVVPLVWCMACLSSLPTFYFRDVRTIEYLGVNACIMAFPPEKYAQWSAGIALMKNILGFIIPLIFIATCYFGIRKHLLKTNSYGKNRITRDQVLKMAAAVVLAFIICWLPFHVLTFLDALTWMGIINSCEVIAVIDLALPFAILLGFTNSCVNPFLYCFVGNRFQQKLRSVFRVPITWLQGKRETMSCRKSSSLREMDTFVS

[3] = molecular target: T2, Type-2 angiotensin II receptor; experiment: Binding affinity towards angiotensin II AT2 receptor subtype was determined using rat isolated adrenal […] microsomes

Row | IC50 [1] [µM] | IC50 [2] [µM] | IC50 [3] [µM] | Structure (SMILES)
1 | 10 | 0.04 | – | COc1ccc(-c2cccc3c2CC(C(=O)O)N(C(=O)C(c2ccccc2)c2ccccc2)C3)cc1 (centres undefined)
2 | > 10 | 5 | – | COC(=O)C1Cc2c(C)cccc2CN1C(=O)C(c1ccccc1)c1ccccc1 (centres undefined)
3 | 4 | 0.08 | – | O=C(O)C1Cc2c(Cc3ccccc3)cccc2CN1C(=O)C(c1ccccc1)c1ccccc1 (stereo in doubt; 23)
4 | > 10 | 2 | – | COC(=O)C1Cc2c(cccc2-c2ccccc2)CN1C(=O)C(c1ccccc1)c1ccccc1 (centres undefined)
5 | 10 | 0.09 | – | O=C(O)C1Cc2c(Cc3ccccc3)cccc2CN1C(=O)C(c1ccccc1)c1ccccc1 (stereo in doubt; 21)
6 | > 10 | 0.4 | – | COc1ccc(Cc2cccc3c2CC(C(=O)O)N(C(=O)N(C)c2ccccc2)C3)cc1 (centres undefined)
7 | > 10 | 0.06 | – | O=C(O)C1Cc2cc(Oc3ccccc3)ccc2CN1C(=O)C(c1ccccc1)c1ccccc1 (centres undefined)
8 | > 10 | > 10 | – | COC(=O)C1Cc2c(Cc3ccc(OC)cc3)cccc2CN1C(=O)C(c1ccccc1)c1ccccc1 (centres undefined)
9 | 7 | 0.09 | – | COc1ccc(Cc2cccc3c2CC(C(=O)O)N(C(=O)C(c2ccccc2)c2ccccc2)C3)cc1 (centres undefined)
10 | > 10 | 0.07 | – | COc1ccc(-c2cccc3c2CC(C(=O)O)N(C(=O)C(c2ccccc2)c2ccccc2)C3)cc1C (centres undefined)

Second part, the compound before the results:

Row | Structure (SMILES) | IC50 [1] [µM] | IC50 [2] [µM] | IC50 [3] [µM]
11 | O=C(O)C1Cc2c(cccc2-c2ccccc2)CN1C(=O)C(c1ccccc1)c1ccccc1 (centres undefined) | > 10 | 0.04 | –
12 | COC(=O)C1Cc2c(Cc3ccccc3)cccc2CN1C(=O)C(c1ccccc1)c1ccccc1 (centres undefined) | > 10 | 7 | –
13 | O=C(O)C1Cc2ccccc2CN1C(=O)C(c1ccccc1)c1ccccc1 (centres undefined) | > 30 | 2.5 | –
14 | COc1ccc(Cn2cnc3c2C[C@@H](C(=O)O)N(C(=O)C(c2ccccc2)c2ccccc2)C3)cc1C | – | – | 0.01
15 | CN(C(=O)N1Cc2ccc(Oc3ccccc3)cc2CC1C(=O)O)c1ccccc1 (centres undefined) | > 10 | 0.3 | –
16 | O=C(O)C1Cc2cc(-c3ccccc3)ccc2CN1C(=O)C(c1ccccc1)c1ccccc1 (centres undefined) | > 10 | 0.03 | –
17 | O=C(O)C1Cc2cc(O)ccc2CN1C(=O)C(c1ccccc1)c1ccccc1 (centres undefined) | > 10 | 0.6 | –
18 | Cc1cccc2c1CC(C(=O)O)N(C(=O)C(c1ccccc1)c1ccccc1)C2 (centres undefined) | > 10 | 0.3 | –
19 | O=C(O)C1Cc2c(Cc3ccccc3)cccc2CN1C(=O)C(c1ccccc1)c1ccccc1 (stereo in doubt; 22) | – | 0.07 | –
20 | COc1ccc(Cc2cccc3c2CC(C(=O)O)N(C(=O)C(c2ccccc2)c2ccccc2)C3)cc1C (centres undefined) | 5 | 0.1 | –
21 | COC(=O)C1Cc2c(cccc2-c2ccc(OC)cc2)CN1C(=O)C(c1ccccc1)c1ccccc1 (centres undefined) | > 10 | 2 | –
22 | COc1ccc(Cc2cccc3c2CC(C(=O)O)N(C(=O)N(c2ccccc2)c2ccccc2)C3)cc1 (centres undefined) | 10 | 0.2 | –
23 | CCCCCc1cccc2c1CC(C(=O)O)N(C(=O)C(c1ccccc1)c1ccccc1)C2 (centres undefined) | > 10 | 0.04 | –
